Assay results: ChEMBL document CHEMBL1201862, “PubChem BioAssay data set” (2004)
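Values below derive from 48-hour exposures of cells grown in 96-well plates, with endpoints linearly interpolated between the two concentrations bracketing the appropriate inhibition level. GI50 marks 50% less growth.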 Calls of active or inactive are those of the source. Rule as the data show it: active = GI50 up to about 1.1 µM and inactive = higher.

How the values were obtained:
Assay in all cases: growth of human tumour cells (NCI), 48 h
SF-268 = test system: SF-268
RPMI-8226 = test system: RPMI-8226
CCRF-CEM = test system: CCRF-CEM
OVCAR-4 = test system: OVCAR-4
SK-MEL-2 = test system: SK-MEL-2
MCF7 = test system: MCF7
COLO 205 = test system: COLO 205
OVCAR-3 = test system: OVCAR-3
BT-549 = test system: BT-549
Hs-578T = test system: Hs-578T
SK-MEL-5 = test system: SK-MEL-5
SN12C = test system: SN12C
U-251 = test system: U-251
CAKI-1 = test system: CAKI-1
T47D = test system: T47D
RXF 393 = test system: RXF 393
NCI-H226 = test system: NCI-H226
LOX IMVI = test system: LOX IMVI
DU-145 = test system: DU-145
HCC 2998 = test system: HCC 2998
HOP-92 = test system: HOP-92
HL-60 = test system: HL-60
MDA-N = test system: MDA-N
HOP-62 = test system: HOP-62
NCI-H522 = test system: NCI-H522
786-0 = test system: 786-0
UACC-62 = test system: UACC-62
HT-29 = test system: HT-29
MOLT-4 = test system: MOLT-4
NCI-H460 = test system: NCI-H460
M14 = test system: M14
KM12 = test system: KM12
EKVX = test system: EKVX
UO-31 = test system: UO-31
IGROV-1 = test system: IGROV-1
SR = test system: SR
TK-10 = test system: TK-10
PC-3 = test system: PC-3
K562 = test system: K562
UACC-257 = test system: UACC-257
SF-295 = test system: SF-295
NCI/ADR-RES = test system: NCI/ADR-RES
HCT-15 = test system: HCT-15
A549 = test system: A549
SNB-75 = test system: SNB-75
OVCAR-8 = test system: OVCAR-8
SK-MEL-28 = test system: SK-MEL-28
SW-620 = test system: SW-620
SNB-19 = test system: SNB-19
MDA-MB-435 = test system: MDA-MB-435
NCI-H23 = test system: NCI-H23
SK-OV-3 = test system: SK-OV-3
Malme-3M = test system: Malme-3M
MDA-MB-231 = test system: MDA-MB-231
HCT-116 = test system: HCT-116
OVCAR-5 = test system: OVCAR-5
SF-539 = test system: SF-539
ACHN = test system: ACHN

In the case of `C[C@@H]1S[C@H](c2ccccc2F)N2Cc3ccccc3N=C12`, the GI50 (SF-268) is reported as 28.6 µM (inactive), the GI50 (RPMI-8226) is reported as 20.6 µM (inactive) and the GI50 (CCRF-CEM) is reported as 30.6 µM (inactive). For the same compound, the GI50 (OVCAR-4) was 21 µM (inactive), the GI50 (SK-MEL-2) was 16.8 µM (inactive) and the GI50 (MCF7) was 31.6 µM (inactive). The GI50 (COLO 205) was 30.8 µM (inactive), the GI50 (OVCAR-3) was 34.4 µM (inactive) and the GI50 (BT-549) was 31.3 µM (inactive). The GI50 (Hs-578T) was 27.7 µM (inactive), the GI50 (SK-MEL-5) was 17 µM (inactive) and the GI50 (SN12C) was 18.7 µM (inactive). The GI50 (U-251) was 27.9 µM (inactive), the GI50 (CAKI-1) was 20.9 µM (inactive) and the GI50 (T47D) was 24.1 µM (inactive). The GI50 (RXF 393) was 27.4 µM (inactive), the GI50 (NCI-H226) was 30.1 µM (inactive) and the GI50 (LOX IMVI) was 18.5 µM (inactive). For the same compound, the GI50 (DU-145) was 33.7 µM (inactive), the GI50 (HCC 2998) was 20 µM (inactive) and the GI50 (HOP-92) was 17.3 µM (inactive). For the same compound, the GI50 (HL-60) was 19.3 µM (inactive), the GI50 (MDA-N) was 20.7 µM (inactive) and the GI50 (HOP-62) was 29.8 µM (inactive). The GI50 (NCI-H522) was 19.2 µM (inactive), the GI50 (786-0) was 23.4 µM (inactive) and the GI50 (UACC-62) was 19.1 µM (inactive). For the same compound, the GI50 (HT-29) was 19.5 µM (inactive), the GI50 (MOLT-4) was 18.2 µM (inactive) and the GI50 (NCI-H460) was 30.9 µM (inactive). For the same compound, the GI50 (M14) was 20.9 µM (inactive), the GI50 (KM12) was 27.3 µM (inactive) and the GI50 (EKVX) was 24.8 µM (inactive). The GI50 (UO-31) was 17.1 µM (inactive), the GI50 (IGROV-1) was 33.5 µM (inactive) and the GI50 (SR) was 15.9 µM (inactive). The GI50 (TK-10) was 36.7 µM (inactive), the GI50 (PC-3) was 22.9 µM (inactive) and the GI50 (K562) was 22.9 µM (inactive). For the same compound, the GI50 (UACC-257) was 28.6 µM (inactive), the GI50 (SF-295) was 26.2 µM (inactive) and the GI50 (NCI/ADR-RES) was 24.7 µM (inactive). For the same compound, the GI50 (HCT-15) was 28.5 µM, the GI50 (A549) was 39.2 µM (inactive) and the GI50 (SNB-75) was 25.6 µM (inactive). The GI50 (OVCAR-8) was 28.4 µM (inactive), the GI50 (SK-MEL-28) was 40.7 µM (inactive) and the GI50 (SW-620) was 36.4 µM (inactive). The GI50 (SNB-19) was 30.6 µM (inactive), the GI50 (MDA-MB-435) was 23.5 µM (inactive) and the GI50 (NCI-H23) was 31.3 µM (inactive). The GI50 (SK-OV-3) was 25.1 µM (inactive), the GI50 (Malme-3M) was 19.9 µM (inactive) and the GI50 (MDA-MB-231) was 35 µM (inactive). The GI50 (HCT-116) was 17.1 µM (inactive), the GI50 (OVCAR-5) was 28.2 µM (inactive) and the GI50 (SF-539) was 37.9 µM (inactive). For the same compound, the GI50 (ACHN) was 31.4 µM (inactive).
With `O=C(c1ccccc1)N1C(=S)N(c2ccc([N+](=O)[O-])cc2)C(=N/c2ccccc2)/C1=N\c1ccccc1` the GI50 (SF-268) was > 100 µM (inactive), the GI50 (RPMI-8226) was > 100 µM (inactive) and the GI50 (SK-MEL-2) was > 100 µM (inactive). The GI50 (MCF7) was > 100 µM (inactive), the GI50 (COLO 205) was > 100 µM (inactive) and the GI50 (OVCAR-3) was > 100 µM (inactive). For the same compound, the GI50 (BT-549) was > 100 µM (inactive), the GI50 (Hs-578T) was > 100 µM (inactive) and the GI50 (SK-MEL-5) was > 100 µM (inactive). The GI50 (SN12C) was > 100 µM (inactive), the GI50 (U-251) was 44.8 µM (inactive) and the GI50 (CAKI-1) was > 100 µM (inactive). For the same compound, the GI50 (T47D) was > 100 µM (inactive), the GI50 (RXF 393) was > 100 µM (inactive) and the GI50 (NCI-H226) was > 100 µM (inactive). For the same compound, the GI50 (DU-145) was > 100 µM (inactive), the GI50 (HCC 2998) was > 100 µM (inactive) and the GI50 (HOP-92) was > 100 µM (inactive). The GI50 (MDA-N) was 52.7 µM (inactive), the GI50 (HOP-62) was > 100 µM (inactive) and the GI50 (NCI-H522) was 9.06 µM (inactive). For the same compound, the GI50 (786-0) was > 100 µM (inactive), the GI50 (UACC-62) was 97.5 µM (inactive) and the GI50 (HT-29) was > 100 µM (inactive). For the same compound, the GI50 (MOLT-4) was 19.5 µM (inactive), the GI50 (NCI-H460) was 72.1 µM (inactive) and the GI50 (M14) was > 100 µM (inactive). For the same compound, the GI50 (KM12) was > 100 µM (inactive), the GI50 (EKVX) was > 100 µM (inactive) and the GI50 (UO-31) was > 100 µM (inactive). The GI50 (IGROV-1) was > 100 µM (inactive), the GI50 (SR) was 20.6 µM (inactive) and the GI50 (TK-10) was > 100 µM (inactive). For the same compound, the GI50 (PC-3) was 40.6 µM (inactive), the GI50 (K562) was 30.1 µM (inactive) and the GI50 (UACC-257) was > 100 µM (inactive). The GI50 (SF-295) was > 100 µM (inactive), the GI50 (NCI/ADR-RES) was > 100 µM (inactive) and the GI50 (HCT-15) was 65.2 µM. The GI50 (A549) was 41.9 µM (inactive), the GI50 (SNB-75) was 24.4 µM (inactive) and the GI50 (OVCAR-8) was 65.5 µM (inactive). For the same compound, the GI50 (SK-MEL-28) was > 100 µM (inactive), the GI50 (SW-620) was > 100 µM (inactive) and the GI50 (SNB-19) was > 100 µM (inactive). For the same compound, the GI50 (MDA-MB-435) was > 100 µM (inactive), the GI50 (NCI-H23) was > 100 µM (inactive) and the GI50 (SK-OV-3) was > 100 µM (inactive). The GI50 (Malme-3M) was > 100 µM (inactive), the GI50 (MDA-MB-231) was 39.8 µM (inactive) and the GI50 (OVCAR-5) was > 100 µM (inactive). For the same compound, the GI50 (SF-539) was > 100 µM (inactive) and the GI50 (ACHN) was 52 µM (inactive).
`C[C@H](NC(=O)CNC(=O)CCCCCC(=O)NCC(=O)N[C@@H](C)C(=O)OCc1ccccc1)C(=O)OCc1ccccc1` was tested, and the GI50 (SF-268) was > 100 µM (inactive), the GI50 (RPMI-8226) was > 100 µM (inactive) and the GI50 (CCRF-CEM) was > 100 µM (inactive). For the same compound, the GI50 (OVCAR-4) was > 100 µM (inactive), the GI50 (SK-MEL-2) was > 100 µM (inactive) and the GI50 (MCF7) was > 100 µM (inactive). The GI50 (COLO 205) was > 100 µM (inactive), the GI50 (OVCAR-3) was > 100 µM (inactive) and the GI50 (BT-549) was > 100 µM (inactive). For the same compound, the GI50 (Hs-578T) was > 100 µM (inactive), the GI50 (SN12C) was > 100 µM (inactive) and the GI50 (U-251) was > 100 µM (inactive). The GI50 (CAKI-1) was > 100 µM (inactive), the GI50 (T47D) was > 100 µM (inactive) and the GI50 (RXF 393) was > 100 µM (inactive). For the same compound, the GI50 (NCI-H226) was > 100 µM (inactive), the GI50 (LOX IMVI) was > 100 µM (inactive) and the GI50 (DU-145) was > 100 µM (inactive). The GI50 (HCC 2998) was > 100 µM (inactive), the GI50 (HOP-92) was > 100 µM (inactive) and the GI50 (MDA-N) was > 100 µM (inactive). For the same compound, the GI50 (HOP-62) was > 100 µM (inactive), the GI50 (786-0) was > 100 µM (inactive) and the GI50 (UACC-62) was > 100 µM (inactive). For the same compound, the GI50 (HT-29) was > 100 µM (inactive), the GI50 (MOLT-4) was > 100 µM (inactive) and the GI50 (M14) was > 100 µM (inactive). For the same compound, the GI50 (KM12) was > 100 µM (inactive), the GI50 (EKVX) was > 100 µM (inactive) and the GI50 (IGROV-1) was > 100 µM (inactive). For the same compound, the GI50 (SR) was > 100 µM (inactive), the GI50 (TK-10) was > 100 µM (inactive) and the GI50 (PC-3) was > 100 µM (inactive). For the same compound, the GI50 (K562) was > 100 µM (inactive), the GI50 (UACC-257) was > 100 µM (inactive) and the GI50 (SF-295) was > 100 µM (inactive). For the same compound, the GI50 (NCI/ADR-RES) was > 100 µM (inactive), the GI50 (HCT-15) was greater than 100 µM and the GI50 (A549) was > 100 µM (inactive). The GI50 (SNB-75) was > 100 µM (inactive), the GI50 (OVCAR-8) was > 100 µM (inactive) and the GI50 (SK-MEL-28) was > 100 µM (inactive). For the same compound, the GI50 (SW-620) was > 100 µM (inactive), the GI50 (SNB-19) was > 100 µM (inactive) and the GI50 (MDA-MB-435) was > 100 µM (inactive). The GI50 (NCI-H23) was > 100 µM (inactive), the GI50 (SK-OV-3) was > 100 µM (inactive) and the GI50 (Malme-3M) was > 100 µM (inactive). The GI50 (MDA-MB-231) was > 100 µM (inactive), the GI50 (HCT-116) was > 100 µM (inactive) and the GI50 (OVCAR-5) was > 100 µM (inactive). The GI50 (SF-539) was > 100 µM (inactive) and the GI50 (ACHN) was > 100 µM (inactive).
